In patent US8846639B2, “Oligomeric compounds comprising bicyclic nucleosides and having reduced toxicity” (Isis Pharmaceutical, Inc., priority 2008, dated 2014):
Several values for one entry are separate records, joined by “and”; a condition that tells them apart may be missing. Equal values may be shown once.

Columns and labels:
PTEN mRNA = PTEN mRNA levels in liver, real-time PCR (Example 14 in vivo study); design: species or system mice; settings: for PTEN mRNA levels (% inhibition): liver, 72 h
Protocol: (§1) Six week old male Balb/c mice (Jackson Laboratory, Bar Harbor, Me.) were administered a single intraperitoneal (i.p) injection with 4′-CH2—O-2′ BNA containing oligomers (392745 and 392063) and 6(S)-4′-CH(CH3)—O-2′ BNA containing oligomers (392749 and 411847) at a does of 3.2, 10, 32, 66 and 100 mg/kg. Oligomers 392063 and 411847 contain LNA nucleosides with methylated pyrimidines, and oligomers 392745 and 392749 contain LNA nucleosides with non-methylated pyrimidines in the wings. All intemucleoside linkages are phosphorothioates, nucleosides not followed by a subscript are βD-2′-deoxyribonucleosides, nucleosides followed by a subscript 1 are 4′-CH2—O-2′ modified bicyclic nucleosides, nucleosides followed by a subscript S are 6(S)-4′-CH(CH3)—O-2′ modified bicyclic nucleosides wherein S indicates the configuration at the 6 carbon atom and ^MeC indicates a 5′-methyl cytosine nucleoside.
Each dose group consisted of four animals. The mice were sacrificed 72 hours following the final administration to determine the PTEN mRNA levels in liver using real-time PCR and RIBOGREEN® RNA quantification reagent (Molecular Probes, Inc. Eugene, Oreg.) according to standard protocols. PTEN mRNA levels were determined relative to total RNA (using Ribogreen), prior to normalization to saline-treated control. Results are listed below as the average % inhibition of mRNA expression for each treatment group, normalized to saline-injected control.
Estimated ED50 concentrations for each oligomers were calculated using Graphpad Prism. ED50 is the dose at which 50% mRNA reducation is observed.

[1] = Liver transaminase (ALT) levels in serum (Example 14); type: in vivo, mice
Protocol: as §1
Liver transaminase levels, alanine aminotranferease (ALT) and aspartate aminotransferase (AST), in serum were also measured relative to saline injected mice. Increases in the transaminase levels can indicate hepatotoxicity. The approximate liver transaminase levels are listed below.

PTEN RNA [2] = assay: PTEN RNA in liver (Example 15 in vivo study); design: species or system mice; settings: 72 h, compared to PBS control
Protocol: (§2) Six week old male Balb/c mice (Jackson Laboratory, Bar Harbor, Me.) were administered a single intraperitoneal (i.p) injection of oligomers as set forth in the table below.
(§3) Mice were divided into 9 groups, with 4 mice in each group. The mice of 8 groups received a single dose, administered i.p., of one of the above oligomeric compounds at a dose of 100, 32, 10, or 3.2 mg/kg. The final group was dosed with phosphate buffered saline (PBS) as a control. The mice were sacrificed 72 hours after administration. Antisense activity was determined by measuring PTEN RNA in liver.

[3] = Serum ALT, individual animals (Example 15); type: in vivo, mice; settings: serum, four animals
Protocol: as §3

[4] = Body weight at sacrifice relative to pre-dose (Example 15); type: in vivo, mice; settings: 72 h, PBS = 99
Protocol: as §3
(§4) Body weight was measured before treatment and again at sacrifice 72 hours after treatment.

[5] = Spleen weight as a measure of inflammatory response (Example 15); type: in vivo, mice; settings: relative to PBS control
Protocol: as §3
(§5) Spleens were weighed as a measure of inflammatory response.

PTEN RNA [6] = assay: PTEN RNA in liver (Example 16 in vivo study); design: species or system mice; settings: for % Reduction PTEN RNA: liver, 72 h, compared to PBS control; for ED50: PTEN RNA in liver
Protocol: as §2
as §3, with “17” for “9”, “16” for “8”, “liver and is expressed as % reduction compared to PBS control mice.” for “liver.”

[7] = Serum ALT, individual animals (Example 16); type: in vivo, mice; settings: four animals
Protocol: as §3, with “17” for “9”, “16” for “8”, “liver and is expressed as % reduction compared to PBS control mice.” for “liver.”
Toxicity was assessed by measuring alanine aminotranferease (ALT) in serum.

[8] = Body weight at sacrifice relative to pre-dose (Example 16); type: in vivo, mice; settings: 72 h, PBS = 102
Protocol: as §3, with “17” for “9”, “16” for “8”, “liver and is expressed as % reduction compared to PBS control mice.” for “liver.”
as §4

[9] = Spleen weight as a measure of inflammatory response (Example 16); type: in vivo, mice; settings: relative to PBS control
Protocol: as §3, with “17” for “9”, “16” for “8”, “liver and is expressed as % reduction compared to PBS control mice.” for “liver.”
as §5

Substance	% Reduction PTEN RNA (PTEN RNA [6]; 3.2 mg/kg single i.p.) [%]	% Reduction PTEN RNA (PTEN RNA [6]; 10 mg/kg single i.p.) [%]	% Reduction PTEN RNA (PTEN RNA [6]; 32 mg/kg single i.p.) [%]	% Reduction PTEN RNA (PTEN RNA [6]; 100 mg/kg single i.p.) [%]	ED50 (PTEN RNA [6]) [mg/kg]	ALT levels - Individual animals ([7]; 3.2 mg/kg)	ALT levels - Individual animals ([7]; 10 mg/kg)	ALT levels - Individual animals ([7]; 32 mg/kg)	ALT levels - Individual animals ([7]; 100 mg/kg)	% pre-dose wt ([8]; 3.2 mg/kg) [%]	% pre-dose wt ([8]; 10 mg/kg) [%]	% pre-dose wt ([8]; 32 mg/kg) [%]	% pre-dose wt ([8]; 100 mg/kg) [%]	spleen weight, % Control ([9]; 3.2 mg/kg) [%]	spleen weight, % Control ([9]; 10 mg/kg) [%]	spleen weight, % Control ([9]; 32 mg/kg) [%]	spleen weight, % Control ([9]; 100 mg/kg) [%]	further results
CSUSTAGCACTGGCCSUS [ISIS 392749]	–	–	–	–	–	–	–	–	–	–	–	–	–	–	–	–	–	PTEN mRNA levels (% inhibition) (PTEN mRNA; 3.2 mg/kg single i.p.): 14%; PTEN mRNA levels (% inhibition) (PTEN mRNA; 10 mg/kg single i.p.): 20%; PTEN mRNA levels (% inhibition) (PTEN mRNA; 32 mg/kg single i.p.): 81%; PTEN mRNA levels (% inhibition) (PTEN mRNA; 66 mg/kg single i.p.): 92%; PTEN mRNA levels (% inhibition) (PTEN mRNA; 100 mg/kg single i.p.): 93%; ED50 (PTEN mRNA; estimated, Graphpad Prism, dose at which 50% mRNA reduction is observed): 15 mg/kg; ALT levels ([1]; 3.2 mg/kg, serum, saline = 24): 18 IU/L; ALT levels ([1]; 10 mg/kg, serum, saline = 24): 24 IU/L; ALT levels ([1]; 32 mg/kg, serum, saline = 24): 14 IU/L; ALT levels ([1]; 66 mg/kg, serum, saline = 24): 18 IU/L; ALT levels ([1]; 100 mg/kg, serum, saline = 24): 33 IU/L; ALT levels ([1]; all doses): not elevated to a level indicative of hepatotoxicity
Cas Uas Tds Ads Gds Cds Ads Cds Tds Gds Gds Cds Cas Ua [ISIS 396006]	–	–	–	–	–	–	–	–	–	–	–	–	–	–	–	–	–	% Reduction PTEN RNA (PTEN RNA [2]; 3.2 mg/kg single i.p.): 47%; % Reduction PTEN RNA (PTEN RNA [2]; 10 mg/kg single i.p.): 77%; % Reduction PTEN RNA (PTEN RNA [2]; 32 mg/kg single i.p.): 95%; % Reduction PTEN RNA (PTEN RNA [2]; 100 mg/kg single i.p.): 97%; ALT levels - Individual animals ([3]; 3.2 mg/kg): 27 IU/L and 19 IU/L and 17 IU/L and 24 IU/L; ALT levels - Individual animals ([3]; 10 mg/kg): 18 IU/L and 22 IU/L and 19 IU/L and 20 IU/L; ALT levels - Individual animals ([3]; 32 mg/kg): 24 IU/L and 19 IU/L and 15 IU/L and 23 IU/L; ALT levels - Individual animals ([3]; 100 mg/kg): 28 IU/L (2×) and 23 IU/L (2×); % of pre-dose weight ([4]; 3.2 mg/kg): 100%; % of pre-dose weight ([4]; 10 mg/kg): 101%; % of pre-dose weight ([4]; 32 mg/kg): 101%; % of pre-dose weight ([4]; 100 mg/kg): 100%; spleen weight, % Control ([5]; 3.2 mg/kg): 95%; spleen weight, % Control ([5]; 10 mg/kg): 100%; spleen weight, % Control ([5]; 32 mg/kg): 97%; spleen weight, % Control ([5]; 100 mg/kg): 120%
Cjs Uos Tds Ads Gds Cds Ads Cds Tds Gds Gds Cds Cjs Uj [ISIS 443393]	10	35	64	91	16.2	19 IU/L and 36 IU/L and 83 IU/L and 20 IU/L	26 IU/L and 33 IU/L and 30 IU/L and 29 IU/L	21 IU/L and 24 IU/L and 53 IU/L (2×)	16 IU/L and 22 IU/L and 42 IU/L and 23 IU/L	101	104	99	98	89	96	110	96	–
Cxs Uxs Tds Ads Gds Cds Ads Cds Tds Gds Gds Cds Cxs Ux [ISIS 445544]	31	72	93	95	4.9	21 IU/L and 28 IU/L and 30 IU/L and 36 IU/L	23 IU/L and 33 IU/L and 20 IU/L and 36 IU/L	23 IU/L and 38 IU/L and 19 IU/L and 22 IU/L	977 IU/L and 1061 IU/L and 88 IU/L and 133 IU/L	103	101	102	98	98	92	101	109	–
